Tested on: Serratia plymuthica CCGG2742
Experiment: Susceptibility of Serratia plymuthica CCGG2742 to various antibiotics
Type: cell-based
Parameters: key: sensibility (S); resistance (R)

Molecule: CN[C@H](CC(C)C)C(=O)N[C@H]1C(=O)N[C@@H](CC(N)=O)C(=O)N[C@H]2C(=O)N[C@H]3C(=O)N[C@H](C(=O)N[C@H](C(=O)O)c4cc(O)cc(O)c4-c4cc3ccc4O)[C@H](O)c3ccc(c(Cl)c3)Oc3cc2cc(c3O[C@@H]2O[C@H](CO)[C@@H](O)[C@H](O)[C@H]2O[C@H]2C[C@](C)(N)[C@H](O)[C@H](C)O2)Oc2ccc(cc2Cl)[C@H]1O [Vancomycin]
- Susceptibility of Serratia plymuthica CCGG2742 to antibiotic (antibiotic 30 μg): R

Molecule: CC(C)(O/N=C(\C(=O)N[C@@H]1C(=O)N2C(C(=O)[O-])=C(C[n+]3ccccc3)CS[C@H]12)c1csc(N)n1)C(=O)O [Ceftazidime]
- Susceptibility of Serratia plymuthica CCGG2742 to antibiotic (antibiotic 30 μg): S

Molecule: Penicillin
- Susceptibility of Serratia plymuthica CCGG2742 to antibiotic (antibiotic 10 U): R

Molecule: CC1(C)S[C@@H]2[C@H](NC(=O)[C@H](N)c3ccc(O)cc3)C(=O)N2[C@H]1C(=O)O [Amoxicillin]
- Susceptibility of Serratia plymuthica CCGG2742 to antibiotic (antibiotic 25 μg): R

Molecule: C[C@H]1[C@H](NC(=O)/C(=N\OC(C)(C)C(=O)O)c2csc(N)n2)C(=O)N1S(=O)(=O)O [Aztreonam]
- Susceptibility of Serratia plymuthica CCGG2742 to antibiotic (antibiotic 30 μg): S

Molecule: NCC[C@H](O)C(=O)N[C@@H]1C[C@H](N)[C@@H](O[C@H]2O[C@H](CN)[C@@H](O)[C@H](O)[C@H]2O)[C@H](O)[C@H]1O[C@H]1O[C@H](CO)[C@@H](O)[C@H](N)[C@H]1O [Amikacine]
- Susceptibility of Serratia plymuthica CCGG2742 to antibiotic (antibiotic 30 μg): S

Molecule: CO[C@@H]1[C@@H](OC(N)=O)[C@@H](O)[C@H](Oc2ccc3c(O)c(NC(=O)c4ccc(O)c(CC=C(C)C)c4)c(=O)oc3c2C)OC1(C)C [Novobiocin]
- Susceptibility of Serratia plymuthica CCGG2742 to antibiotic (antibiotic 5 μg): R

Molecule: CC1=C(C(=O)O)N2C(=O)[C@@H](NC(=O)[C@H](N)c3ccc(O)cc3)[C@H]2SC1 [Cefadroxil]
- Susceptibility of Serratia plymuthica CCGG2742 to antibiotic (antibiotic 30 μg): R

Molecule: CC(=O)OCC1=C(C(=O)O)N2C(=O)[C@@H](NC(=O)Cc3cccs3)[C@H]2SC1 [Cefalotin]
- Susceptibility of Serratia plymuthica CCGG2742 to antibiotic (antibiotic 30 μg): R

Molecule: CO/N=C(\C(=O)N[C@@H]1C(=O)N2C(C(=O)O)=C(CSc3nc(=O)c(=O)[nH]n3C)CS[C@H]12)c1csc(N)n1 [Ceftriaxone]
- Susceptibility of Serratia plymuthica CCGG2742 to antibiotic (antibiotic 30 μg): S

Molecule: Cc1nnc(SCC2=C(C(=O)O)N3C(=O)[C@@H](NC(=O)Cn4cnnn4)[C@H]3SC2)s1 [Cefazolin]
- Susceptibility of Serratia plymuthica CCGG2742 to antibiotic (antibiotic 30 μg): R

Molecule: CN(C)[C@@H]1C(O)=C(C(N)=O)C(=O)[C@@]2(O)C(O)=C3C(=O)c4c(O)cccc4[C@@](C)(O)[C@H]3C[C@@H]12 [Tetracycline]
- Susceptibility of Serratia plymuthica CCGG2742 to antibiotic (antibiotic 30 μg): R

Molecule: Cc1onc(-c2ccccc2)c1C(=O)N[C@@H]1C(=O)N2[C@@H]1SC(C)(C)[C@@H]2C(=O)O [Oxacillin]
- Susceptibility of Serratia plymuthica CCGG2742 to antibiotic (antibiotic 1 μg): R

Molecule: CO/N=C(\C(=O)N[C@@H]1C(=O)N2C(C(=O)O)=C(COC(N)=O)CS[C@H]12)c1ccco1 [Cefuroxime]
- Susceptibility of Serratia plymuthica CCGG2742 to antibiotic (antibiotic 30 μg): R

Molecule: O=C(N[C@H](CO)[C@H](O)c1ccc([N+](=O)[O-])cc1)C(Cl)Cl [Chloramphenicol]
- Susceptibility of Serratia plymuthica CCGG2742 to antibiotic (antibiotic 30 μg): S

Molecule: CO/N=C(\C(=O)N[C@@H]1C(=O)N2C(C(=O)O)=C(COC(C)=O)CS[C@H]12)c1csc(N)n1 [Cefotaxime]
- Susceptibility of Serratia plymuthica CCGG2742 to antibiotic (antibiotic 30 μg): S

Molecule: CC1(C)S[C@@H]2[C@H](NC(=O)[C@H](N)c3ccccc3)C(=O)N2[C@H]1C(=O)O [Ampicillin]
- Susceptibility of Serratia plymuthica CCGG2742 to antibiotic (antibiotic 10 μg): R

Molecule: CCN1CCN(C(=O)N[C@@H](C(=O)N[C@@H]2C(=O)N3C(C(=O)O)=C(CSc4nnnn4C)CS[C@H]23)c2ccc(O)cc2)C(=O)C1=O [Cefoperazone]
- Susceptibility of Serratia plymuthica CCGG2742 to antibiotic (antibiotic 75 μg): S

Molecule: CC1(C)S[C@@H]2[C@H](NC(=O)C(C(=O)O)c3ccccc3)C(=O)N2[C@H]1C(=O)O (some centres unmarked) [Carbenicillin]
- Susceptibility of Serratia plymuthica CCGG2742 to antibiotic (antibiotic 100 μg): S

Molecule: Gentamicin
- Susceptibility of Serratia plymuthica CCGG2742 to antibiotic (antibiotic 10 μg): S

Molecule: O=C1CN(/N=C/c2ccc([N+](=O)[O-])o2)C(=O)N1 [Nitrofurantoin]
- Susceptibility of Serratia plymuthica CCGG2742 to antibiotic (antibiotic 300 μg): R

Molecule: CCC[C@@H]1C[C@@H](C(=O)N[C@@H]([C@H]2O[C@H](SC)[C@H](O)[C@@H](O)[C@H]2O)[C@H](C)Cl)N(C)C1 [Clindamycin]
- Susceptibility of Serratia plymuthica CCGG2742 to antibiotic (antibiotic 2 μg): R

Molecule: CC[C@H]1OC(=O)[C@H](C)[C@@H](O[C@H]2C[C@@](C)(OC)[C@@H](O)[C@H](C)O2)[C@H](C)[C@@H](O[C@@H]2O[C@H](C)C[C@H](N(C)C)[C@H]2O)[C@](C)(O)C[C@@H](C)C(=O)[C@H](C)[C@@H](O)[C@]1(C)O [Erythromycin]
- Susceptibility of Serratia plymuthica CCGG2742 to antibiotic (antibiotic 15 μg): R

Reference: patent US8372391B2, “Biofungicidal composition for controlling phytopathogenic fungi” (priority 2009, dated 2013)
